According to patent US20200268835A1, “Compounds For Use in NASH” (Novo Nordisk A/S, priority 2019, published 2020):
Numbered stars: 1 amine (or outer) side, 2 acyl side, 3 side chain; on linkers, the order of the positions; unused ones are H or OH. Square brackets hold non-standard residues; d marks the D form. Side chains are listed from the residue outwards. Peptide text beside a SMILES is read from it. * marks the point of attachment. C18 diacid = O=C(O)CCCCCCCCCCCCCCCCC(=O)*; γGlu = O=C(O)[C@H](CCC(=O)[*:2])N[*:1]; Ac4c = NC1(C(=O)O)CCC1; AEEA = NCCOCCOCC(=O)O; Aib = CC(C)(N)C(=O)O

Assays:
human GLP-1 receptor = biological target: T1, human GLP-1 receptor (Homo sapiens, UniProt P43220); assay: GLP-1 receptor SPA binding assay; conditions: 0% HSA; BHK cell membranes; displacement of [125I]-GLP-1(7-36)-NH2; read-out: Human GLP1 R SPA binding 0% HSA IC50
T1 construct: expressed in transfected cells; membrane preparation
Text: (§1) In one embodiment affinity refers to in vitro binding affinity, i.e. performance in a GLP-1 receptor binding affinity assay and in a glucagon receptor binding affinity assay, more particularly to the capability of binding the human GLP-1 receptor and to the human glucagon receptor. The binding affinity of the human GLP-1 receptor may be measured in a binding assay, e.g. in a stably transfected BHK cell line that expresses the human GLP-1 receptor. Radioactively labelled GLP-1 binds to the receptor and may be displaced competitvely by a compound. Binding of radioligand may be determined in the presence of scintillation proximity assay (SPA) beads which bind to cell membranes and when radioactivity is close to the bead it produces light which is measured and is a measure of the in vitro binding affinity. […] The binding affinity of the human glucagon receptor may be measured in a binding affinity assay, e.g. in a stably transfected BHK cell line that expresses the human glucagon receptor. […] Binding of radioligand may be determined in the presence of scintillation proximity assay (SPA) beads which bind to cell membranes and when radioactivity is close to the bead it produces light which is measured and is a measure of the in vitro binding affinity. […] The protein concentration was subsequently determined, and the membranes were stored at −80° C. until use. […]

human glucagon receptor = biological target: T2, human glucagon receptor (Homo sapiens, UniProt P47871); assay: Glucagon receptor SPA binding assay; conditions: 0% HSA; BHK cell membranes; displacement of [125I]-glucagon; read-out: Human GCG R SPA binding 0% HSA IC50
T2 construct: expressed in transfected cells; membrane preparation
Text: as §1

[1] = Plasma alanine transferase levels in diet-induced NASH mice; type: in vivo, male C57BL/6 mice; conditions: after 56 days of treatment, SC once daily; FIG. 3
Description: (§2) At 5 weeks of age, male C57BL/6 mice were purchased from JanVier, France. During the acclimatization and diet-induction period, the mice were group housed ten per cage in custom-made cabinets under a 12:12 light dark cycle (lights on from 3 AM-3 PM) at controlled temperature conditions (22±1° C.; 50±10% relative humidity). Throughout the diet-induction the mice had ad libitum access to AMLN diet (D09100301, Research Diet, USA) (40% fat (18% trans-fat), 40% carbohydrates (20% fructose) and 2% cholesterol) or regular rodent chow (chow vehicle group) (Altromin 1324, Brogaarden, Denmark) and tap water. Throughout the study period the mice had ad libitum access to AMLN diet, except the weight-matched group which was food restricted to lower the body weight to the same level as for animals receiving compound A or compound B, or regular rodent chow (chow vehicle group) and tap water. […]
(§3) During the diet-induction period, body weight was intermittently monitored. […]
Animal experiments were conducted as described in the section “General Methods of Animal Experiments”. […] All parameters are measured in single determinations using autoanalyzer Cobas C-111 with commercial kit (Roche Diagnostics, Germany) according to the manufacturer's instructions. Data are expressed as mean±SEM (NASH groups n=11-12, Chow Vehicle group n=10). […]

[2] = Hepatic terminal triglycerides and cholesterol content in diet-induced NASH mice; type: in vivo, male C57BL/6 mice; conditions: after 56 days of treatment; FIG. 5A
Description: as §2, §3
Animal experiments were conducted as described in the section “General Methods of Animal Experiments”. Triglycerides and total cholesterol content in liver homogenates were measured in single determinations using autoanalyzer Cobas C-111 with commercial kit (Roche Diagnostics, Germany) according to manufacturer's instructions. […]

T2 sequence (P47871 26-477): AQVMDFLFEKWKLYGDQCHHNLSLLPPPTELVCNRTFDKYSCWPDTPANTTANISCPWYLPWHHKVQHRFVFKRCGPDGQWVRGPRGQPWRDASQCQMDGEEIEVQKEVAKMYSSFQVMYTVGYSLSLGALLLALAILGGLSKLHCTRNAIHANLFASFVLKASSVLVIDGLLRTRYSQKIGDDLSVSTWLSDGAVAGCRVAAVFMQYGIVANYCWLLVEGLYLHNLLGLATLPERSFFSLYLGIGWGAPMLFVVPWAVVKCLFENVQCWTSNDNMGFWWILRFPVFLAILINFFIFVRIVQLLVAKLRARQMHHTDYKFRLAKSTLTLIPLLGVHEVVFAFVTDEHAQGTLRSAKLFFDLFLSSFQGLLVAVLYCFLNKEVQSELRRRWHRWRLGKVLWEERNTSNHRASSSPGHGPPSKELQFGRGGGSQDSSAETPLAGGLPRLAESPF
T1 sequence (P43220 24-463): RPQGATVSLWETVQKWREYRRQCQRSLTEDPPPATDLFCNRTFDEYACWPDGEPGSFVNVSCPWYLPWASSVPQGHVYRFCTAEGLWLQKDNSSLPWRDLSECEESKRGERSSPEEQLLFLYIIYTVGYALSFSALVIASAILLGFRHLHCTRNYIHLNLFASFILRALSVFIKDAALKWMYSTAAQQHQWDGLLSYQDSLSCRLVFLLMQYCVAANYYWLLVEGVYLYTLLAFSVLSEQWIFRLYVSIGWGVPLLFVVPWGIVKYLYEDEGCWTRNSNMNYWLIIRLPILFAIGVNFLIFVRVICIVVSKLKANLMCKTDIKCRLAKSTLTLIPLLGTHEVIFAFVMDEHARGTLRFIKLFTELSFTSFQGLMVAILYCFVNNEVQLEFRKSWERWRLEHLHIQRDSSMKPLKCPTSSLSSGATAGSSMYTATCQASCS

SMILES	IC50 (human GLP-1 receptor)	IC50 (human glucagon receptor)	effect on plasma ALT levels compared with the weight-matched (WM) group [1]	effect on liver triglyceride levels compared with the weight-matched (WM) group [2]
CC(C)C[C@H](NC(=O)[C@H](CC(=O)O)NC(=O)[C@H](CC(C)C)NC(=O)[C@H](Cc1ccc(O)cc1)NC(=O)[C@H](CCCCN)NC(=O)[C@H](CO)NC(=O)[C@H](CC(C)C)NC(=O)[C@H](CC(=O)O)NC(=O)[C@H](CO)NC(=O)[C@@H](NC(=O)[C@H](Cc1ccccc1)NC(=O)[C@@H](NC(=O)CNC(=O)[C@H](CCC(N)=O)NC(=O)C1(NC(=O)[C@@H](N)Cc2c[nH]cn2)CCC1)[C@@H](C)O)[C@@H](C)O)C(=O)N[C@@H](CCCNC(=N)N)C(=O)N[C@@H](CCCNC(=N)N)C(=O)N[C@@H](C)C(=O)N[C@@H](CCCNC(=N)N)C(=O)N[C@@H](CC(=O)O)C(=O)N[C@@H](Cc1ccccc1)C(=O)N[C@H](C(=O)N[C@@H](CCC(N)=O)C(=O)N[C@@H](Cc1c[nH]c2ccccc12)C(=O)N[C@@H](CC(C)C)C(=O)N[C@@H](CC(C)C)C(=O)N[C@@H](CCCCNC(=O)CC[C@H](NC(=O)CC[C@H](NC(=O)COCCOCCNC(=O)COCCOCCNC(=O)CC[C@H](NC(=O)CC[C@H](NC(=O)CCCCCCCCCCCCCCCCC(=O)O)C(=O)O)C(=O)O)C(=O)O)C(=O)O)C(=O)N[C@H](C(N)=O)[C@@H](C)O)C(C)C [Compound B, N^ε28-[(4S)-4-carboxy-4-[[(4S)-4-carboxy-4-[[2-[2-[2-[[2-[2-[2-[[(4S)-4-carboxy-4-[[(4S)-4-carboxy-4-(17-carboxyheptadecanoylamino)butanoyl]amino]butanoyl]amino]ethoxy]ethoxy]acetyl]amino]ethoxy]ethoxy]acetyl]amino]butanoyl]amino]butanoyl]-[Acb2,Leu10,Leu16,Arg20,Leu27,Lys28]-Glucagon amide] (H-H[Ac4c]QGTFTSDLSKYLDLRRARDFVQWLLK([γGlu-γGlu-AEEA-AEEA-γGlu-γGlu-C18 diacid])T-NH2)	1.6 nM	0.8 nM	the observed effect is bigger	the observed effect is bigger
CC(C)C[C@H](NC(=O)[C@H](Cc1ccc(O)cc1)NC(=O)[C@H](CCCCN)NC(=O)[C@H](CO)NC(=O)[C@H](CC(C)C)NC(=O)[C@H](CC(=O)O)NC(=O)[C@H](CO)NC(=O)[C@@H](NC(=O)[C@H](Cc1ccccc1)NC(=O)[C@@H](NC(=O)CNC(=O)[C@H](CCC(N)=O)NC(=O)C(C)(C)NC(=O)[C@@H](N)Cc1c[nH]cn1)[C@@H](C)O)[C@@H](C)O)C(=O)N[C@@H](CCC(=O)O)C(=O)N[C@@H](CO)C(=O)N[C@@H](CCCCN)C(=O)N[C@@H](CCCNC(=N)N)C(=O)N[C@@H](C)C(=O)N[C@@H](CCCNC(=N)N)C(=O)N[C@@H](CCC(=O)O)C(=O)N[C@@H](Cc1ccccc1)C(=O)N[C@H](C(=O)N[C@@H](CCC(N)=O)C(=O)N[C@@H](Cc1c[nH]c2ccccc12)C(=O)N[C@@H](CC(C)C)C(=O)N[C@@H](CC(C)C)C(=O)N[C@@H](CCCCNC(=O)CC[C@H](NC(=O)CC[C@H](NC(=O)[C@H](CO)NC(=O)[C@H](CCC(=O)O)NC(=O)[C@H](CO)NC(=O)CC[C@H](NC(=O)CC[C@H](NC(=O)CCCCCCCCCCCCCCCCC(=O)O)C(=O)O)C(=O)O)C(=O)O)C(=O)O)C(=O)N[C@H](C(N)=O)[C@@H](C)O)C(C)C [Compound A, N^ε28-[(4S)-4-carboxy-4-[[(4S)-4-carboxy-4-[[(2S)-2-[[(2S)-4-carboxy-2-[[(2S)-2-[[(4S)-4-carboxy-4-[[(4S)-4-carboxy-4-(17-carboxyheptadecanoylamino)butanoyl]amino]butanoyl]amino]-3-hydroxypropanoyl]amino]butanoyl]amino]-3-hydroxypropanoyl]amino]butanoyl]amino]butanoyl]-[Aib2,Leu10,Glu15,Lys17,Arg20,Glu21,Leu27,Lys28]-Glucagon amide] (H-H[Aib]QGTFTSDLSKYLESKRAREFVQWLLK([γGlu-γGlu-Ser-Glu-Ser-γGlu-γGlu-C18 diacid])T-NH2)	0.3 nM	1.4 nM	the observed effect is bigger	the observed effect is bigger
